# The source made the active and inactive calls.
# Tests used:
# [1] = target: Mucolipin-3 (Homo sapiens, UniProt Q8TDD5); test: Dose response cell-based high-throughput screening assay for agonists of the transient receptor potential channel ML3 (TRPML3). [Related pubchem assays: 1526, 1424, 1448 ]; type: functional
# [2] = target: Ion channel NompC (Danio rerio, UniProt Q7T1G6); test: Fluorescence counterscreen assay for TRPML3 agonists: dose response cell-based high-throughput screening assay to identify agonists of the transient receptor potential channel N1 (TRPN1). [Related pubchem assays: 1526, 1424, 1448 ]; type: functional
# [3] = target: Mothers against decapentaplegic homolog 3 (Homo sapiens, UniProt P84022); test: inhibitors of SMAD-driven TGF-beta signaling – dose response (AID 715); type: functional
# [4] = target: Cytochrome P450 2C19 (Homo sapiens, UniProt P33261); test: Cytochrome panel assay with activity outcomes. Panel member name: p450-cyp2c19 Compounds with AC50 equal or less than 10 uM are considered active; type: functional
# [5] = target: Cytochrome P450 2D6 (Homo sapiens, UniProt P10635);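 also: CYP2D6 member of a cytochrome P450 panel assay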
# [6] = Trypanosoma cruzi growth suppression in host cells – NIH3T3 host cells, beta-gal luminescence, confirmation (AID 2044); type: functional, cell-based;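 also: intracellular parasites grown in NIH/3T3 mouse fibroblasts as host cells; luminescent beta-galactosidase reporter signal from transgenic T. cruzi replicating inside host cells; inhibitors lower the luminescence signal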
# [7] = NIH3T3 cell viability loss – ATP luminescence, mouse fibroblasts, counter-screen, dose response (AID 2010); type: functional, cell-based;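 also: cells exposed to compound for about 90 hours before reading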
# [8] = viability loss in Vero cells – cytotoxicity control for Vif-APOBEC3G degradation inhibitor project, dose response (AID 1117358); type: functional; details: Vero
# [9] = target: NADPH oxidase 1 (Homo sapiens, UniProt Q9Y5S8); type: functional, cell-based;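 also: Cell-based assay with luminescence read-out, IC50 derived from inhibitor dose-response curves; intracellular ROS from endogenous NOX1 in intact HT29 colon cancer cells; potency of inhibitors that lower the ROS luminescence signal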
# [10] = viability of PTEN-deleted HCT116 cells – cell-based, HCT116 PTEN knockout, dose response (AID 1047); type: functional;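 also: HCT116 colon tumor cells with PTEN knocked out; cells exposed to compound for 60 hours before readout; potency for loss of cell viability measured by luminescence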
# [11] = viability of HCT116 lacking mutant beta-catenin – cell-based, human colon tumor, dose response (AID 1045); type: functional;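 also: HCT116 colon tumor cells with beta catenin knocked out; cells exposed to compound for 60 hours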
# [12] = target: T1, Estrogen receptor (Homo sapiens, UniProt P03372); test: ERα coactivator recruitment enhancers – biochemical, TR-FRET, ERα LBD, dose response (AID 737)
# T1 sequence (P03372 whole entry): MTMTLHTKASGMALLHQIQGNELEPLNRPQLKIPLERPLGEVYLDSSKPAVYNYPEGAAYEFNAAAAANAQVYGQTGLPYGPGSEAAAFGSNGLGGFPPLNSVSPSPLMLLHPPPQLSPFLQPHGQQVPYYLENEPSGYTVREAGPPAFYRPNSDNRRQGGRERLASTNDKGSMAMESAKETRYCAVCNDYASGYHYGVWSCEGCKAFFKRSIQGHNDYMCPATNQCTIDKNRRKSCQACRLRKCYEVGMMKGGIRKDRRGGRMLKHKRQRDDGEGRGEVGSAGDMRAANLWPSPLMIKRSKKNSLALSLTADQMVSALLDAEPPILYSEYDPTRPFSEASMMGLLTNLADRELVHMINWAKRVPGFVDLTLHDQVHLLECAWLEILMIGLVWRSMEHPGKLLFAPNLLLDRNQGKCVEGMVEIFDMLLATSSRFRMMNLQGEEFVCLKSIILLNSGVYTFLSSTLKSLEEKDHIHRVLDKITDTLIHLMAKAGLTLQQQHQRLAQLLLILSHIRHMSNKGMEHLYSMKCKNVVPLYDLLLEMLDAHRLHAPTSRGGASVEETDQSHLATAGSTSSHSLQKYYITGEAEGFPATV
# [13] = target: Large T antigen (Simian virus 40, UniProt P03070); type: functional, Betapolyomavirus macacae;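 also: Confirmatory-stage PubChem screen for compounds that inhibit SV40 T antigen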
# [14] = target: Bifunctional protein GlmU (Mycobacterium tuberculosis, UniProt P9WMN3); test: Inhibitors of Mycobacterial Glucosamine-1-phosphate acetyl transferase (GlmU). Secondary screen.; design: species or system Mycobacterium tuberculosis H37Rv
# [15] = target: Nonstructural protein 1 (Influenza A virus, UniProt Q194T2); type: functional, Influenza A virus (A/California/07/2009(H1N1))
# [16] = target: Protein S100-A4 (Homo sapiens, UniProt P26447); test: human S100A4 peptide interaction inhibition curves – biochemical, fluorescence polarization, cherry-picked hits, dose response (AID 687001); type: functional
# [17] = system: Vero; test: mammalian cell viability reduction – secondary assay, cytotoxicity control for West Nile virus antiviral project, dose response (AID 1650); type: functional; details: Chlorocebus sabaeus
# [18] = A High Throughput Confirmatory Assay used to Identify Novel Compounds that Inhibit Mycobacterium Tuberculosis in the absence of Glycerol.; type: functional
# [19] = microbe, parasite or virus in culture; type: functional; details: Mycobacterium tuberculosis
# [20] = target: Cytochrome P450 3A4 (Homo sapiens, UniProt P08684);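 also: CYP3A4 tested as one member of a cytochrome P450 panel screen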
# [21] = target: T2, Leucine aminopeptidase (Plasmodium falciparum 3D7, UniProt Q8IL11); test: P. falciparum M17LAP inhibitors, primary screen, biochemical, fluorogenic H-Leu-NHMec substrate, 1536-well (AID 1619); type: functional
# T2 sequence (Q8IL11 whole entry): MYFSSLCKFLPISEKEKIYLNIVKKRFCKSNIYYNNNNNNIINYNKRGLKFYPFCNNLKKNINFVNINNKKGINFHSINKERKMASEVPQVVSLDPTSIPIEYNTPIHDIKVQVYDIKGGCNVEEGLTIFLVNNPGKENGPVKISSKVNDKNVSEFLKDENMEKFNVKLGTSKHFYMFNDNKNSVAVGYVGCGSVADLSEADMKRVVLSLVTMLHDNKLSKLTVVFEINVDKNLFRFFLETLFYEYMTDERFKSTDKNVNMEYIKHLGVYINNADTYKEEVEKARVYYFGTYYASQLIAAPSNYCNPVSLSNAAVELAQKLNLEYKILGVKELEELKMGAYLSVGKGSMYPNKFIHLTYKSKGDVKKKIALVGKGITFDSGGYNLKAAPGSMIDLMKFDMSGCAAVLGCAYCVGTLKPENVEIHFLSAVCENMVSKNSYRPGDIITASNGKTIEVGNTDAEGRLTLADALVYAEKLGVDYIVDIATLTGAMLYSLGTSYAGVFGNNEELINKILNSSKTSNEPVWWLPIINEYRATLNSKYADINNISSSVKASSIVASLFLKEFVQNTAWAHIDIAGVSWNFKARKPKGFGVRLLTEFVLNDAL
# [22] = antiviral protection against BTV-induced cell death – arbovirus, BSR cells, confirmation (AID 1250); type: functional;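 also: protection from viral cytopathic effect measured as cell viability by ATP luminescence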
# [23] = target: T3, Short transient receptor potential channel 4 (Mus musculus, UniProt Q9QUQ5); test: block of DAMGO-driven TRPC4 calcium entry – cell-based, HEK293 TRPC4/mu-opioid, Fluo-4 calcium, dose response (AID 434942); type: functional;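 also: potency of inhibitors blocking the TRPC4 calcium response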
# T3 sequence (Q9QUQ5 whole entry): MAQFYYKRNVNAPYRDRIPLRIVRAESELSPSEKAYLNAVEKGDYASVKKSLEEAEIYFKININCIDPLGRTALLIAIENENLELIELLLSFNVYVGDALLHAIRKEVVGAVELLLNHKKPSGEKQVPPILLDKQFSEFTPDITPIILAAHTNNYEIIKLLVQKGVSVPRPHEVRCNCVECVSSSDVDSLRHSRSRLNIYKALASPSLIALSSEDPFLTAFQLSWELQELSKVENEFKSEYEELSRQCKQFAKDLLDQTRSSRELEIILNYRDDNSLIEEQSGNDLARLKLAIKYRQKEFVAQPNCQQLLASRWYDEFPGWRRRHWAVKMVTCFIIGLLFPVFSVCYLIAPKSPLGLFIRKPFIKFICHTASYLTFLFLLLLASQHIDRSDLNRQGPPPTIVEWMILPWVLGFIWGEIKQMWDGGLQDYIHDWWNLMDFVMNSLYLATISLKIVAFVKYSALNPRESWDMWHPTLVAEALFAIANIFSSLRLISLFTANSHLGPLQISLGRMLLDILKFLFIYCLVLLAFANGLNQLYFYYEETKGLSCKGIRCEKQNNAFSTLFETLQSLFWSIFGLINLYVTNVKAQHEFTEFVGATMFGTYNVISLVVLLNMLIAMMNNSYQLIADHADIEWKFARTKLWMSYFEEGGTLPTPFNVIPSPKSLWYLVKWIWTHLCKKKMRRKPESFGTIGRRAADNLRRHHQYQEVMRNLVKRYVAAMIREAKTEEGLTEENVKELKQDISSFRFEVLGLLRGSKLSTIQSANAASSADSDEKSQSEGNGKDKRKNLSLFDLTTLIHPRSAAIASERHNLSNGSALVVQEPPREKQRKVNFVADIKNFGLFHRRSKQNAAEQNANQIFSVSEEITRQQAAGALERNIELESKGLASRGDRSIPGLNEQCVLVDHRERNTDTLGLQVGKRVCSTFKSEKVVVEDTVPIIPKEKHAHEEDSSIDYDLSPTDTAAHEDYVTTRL
# [24] = target: Ubiquitin carboxyl-terminal hydrolase BAP1 (Homo sapiens, UniProt Q92560); test: inhibition of BAP1 ubiquitin hydrolase activity – biochemical, dose response (AID 714); type: functional
# [25] = target: T4, Bcl-2-like protein 10 (Homo sapiens, UniProt Q9HD36); test: Concentration-response of Bcl-B inhibitors by biochemical FP with TR3 (AID 1243); type: functional
# T4 sequence (Q9HD36 whole entry): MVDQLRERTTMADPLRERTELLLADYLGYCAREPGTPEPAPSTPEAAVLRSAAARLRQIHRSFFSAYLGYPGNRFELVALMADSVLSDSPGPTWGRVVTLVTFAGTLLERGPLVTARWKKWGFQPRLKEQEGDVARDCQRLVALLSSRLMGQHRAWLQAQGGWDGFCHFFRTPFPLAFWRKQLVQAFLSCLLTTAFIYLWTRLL
# [26] = target: Induced myeloid leukemia cell differentiation protein Mcl-1 (Homo sapiens, UniProt Q07820); test: blockers of MCL1 binding to BIM peptide – biochemical, fluorescence polarization, BIM-BH3 peptide, 1536-well, dose response (AID 2217)
# [27] = target: Bcl-2-like protein 1 (Homo sapiens, UniProt Q07817); test: blockers of BCLXL peptide binding – biochemical, fluorescence polarization, 1536-well, selectivity assay for MCL1 inhibitor project, dose response (AID 2218)
# [28] = system: HEK293; test: Fluorescence-based counterscreen for potentiators or agonists of NPY-Y2: cell-based high-throughput dose response assay to identify inhibitors of cyclic nucleotide gated ion channel (CNGC) activity. In this assay, the parental HEK293 cell line transfected with a cyclic-nucleotide gated ion channel (CNGC)-based cAMP sensor is used to measure inhibition of isoproterenol-induced CNGC activity by test compound.; type: functional; details: Homo sapiens;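 also: stimulus is 1 µM isoproterenol at EC100 plus PDE inhibitor Ro 20-1724 at 25 µM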
# [29] = target: Neuropeptide Y receptor type 2 (Homo sapiens, UniProt P49146); test: Fluorescence-based cell-based high-throughput dose response assay for agonists of NPY-Y2. [Related pubchem assays: 1703 (Screening assay (CNGC inhibitors).), 1359 (Screening assay (NPY-Y2 potentiators or agonists).), 1304 (Screening assay (NPY-Y1 potentiators or agonists).), 1710 (Screening assay (NPY-Y2 agonists).), 1791 (Summary AID.)]; type: functional
# [30] = target: Neuropeptide Y receptor type 1 (Homo sapiens, UniProt P25929); test: Fluorescence-based counterscreen for agonists of NPY-Y2: cell-based high-throughput dose response assay for agonists of NPY-Y1.; type: functional
# Nonstructural protein 1, sequence (Q194T2 whole entry): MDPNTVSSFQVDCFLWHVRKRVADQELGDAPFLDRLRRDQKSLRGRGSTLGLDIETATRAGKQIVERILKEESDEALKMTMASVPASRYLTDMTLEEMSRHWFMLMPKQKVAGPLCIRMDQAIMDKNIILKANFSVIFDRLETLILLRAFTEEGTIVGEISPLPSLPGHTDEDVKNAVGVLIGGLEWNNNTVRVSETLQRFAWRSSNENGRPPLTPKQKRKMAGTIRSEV
# Cytochrome P450 2D6, sequence (P10635 whole entry): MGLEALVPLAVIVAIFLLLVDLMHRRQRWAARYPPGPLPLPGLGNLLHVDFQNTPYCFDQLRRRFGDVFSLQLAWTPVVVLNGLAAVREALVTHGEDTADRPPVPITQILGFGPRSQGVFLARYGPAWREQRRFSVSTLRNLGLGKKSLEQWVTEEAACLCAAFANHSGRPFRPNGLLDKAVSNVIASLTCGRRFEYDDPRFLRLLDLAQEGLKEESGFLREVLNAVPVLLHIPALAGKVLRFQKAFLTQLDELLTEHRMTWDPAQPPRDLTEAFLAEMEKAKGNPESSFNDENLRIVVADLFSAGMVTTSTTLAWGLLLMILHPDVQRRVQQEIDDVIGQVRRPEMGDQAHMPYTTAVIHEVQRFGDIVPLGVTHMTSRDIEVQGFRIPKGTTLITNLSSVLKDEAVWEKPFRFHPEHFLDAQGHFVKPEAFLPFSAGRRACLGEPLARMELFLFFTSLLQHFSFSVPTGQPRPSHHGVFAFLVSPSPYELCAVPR
# Ubiquitin carboxyl-terminal hydrolase BAP1, sequence (Q92560 whole entry): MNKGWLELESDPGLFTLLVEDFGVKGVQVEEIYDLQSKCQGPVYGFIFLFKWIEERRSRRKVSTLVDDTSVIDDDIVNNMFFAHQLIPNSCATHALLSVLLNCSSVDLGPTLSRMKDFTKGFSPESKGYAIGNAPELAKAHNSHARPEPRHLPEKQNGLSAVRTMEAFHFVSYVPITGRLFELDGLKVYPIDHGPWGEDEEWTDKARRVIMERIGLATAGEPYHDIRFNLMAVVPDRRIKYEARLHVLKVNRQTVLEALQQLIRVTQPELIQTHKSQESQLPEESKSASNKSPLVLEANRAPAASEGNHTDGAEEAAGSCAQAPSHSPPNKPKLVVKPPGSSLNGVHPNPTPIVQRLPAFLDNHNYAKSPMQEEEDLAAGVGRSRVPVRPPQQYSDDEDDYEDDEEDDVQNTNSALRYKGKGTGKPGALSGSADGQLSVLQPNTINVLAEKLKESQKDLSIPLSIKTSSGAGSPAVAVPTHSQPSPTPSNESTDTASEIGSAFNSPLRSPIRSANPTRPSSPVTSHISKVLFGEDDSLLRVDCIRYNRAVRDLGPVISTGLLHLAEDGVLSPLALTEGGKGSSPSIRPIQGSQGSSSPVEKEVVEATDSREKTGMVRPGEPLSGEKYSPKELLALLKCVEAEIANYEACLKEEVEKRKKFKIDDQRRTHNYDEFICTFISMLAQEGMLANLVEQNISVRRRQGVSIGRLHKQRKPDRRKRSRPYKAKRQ
# NADPH oxidase 1, sequence (Q9Y5S8 whole entry): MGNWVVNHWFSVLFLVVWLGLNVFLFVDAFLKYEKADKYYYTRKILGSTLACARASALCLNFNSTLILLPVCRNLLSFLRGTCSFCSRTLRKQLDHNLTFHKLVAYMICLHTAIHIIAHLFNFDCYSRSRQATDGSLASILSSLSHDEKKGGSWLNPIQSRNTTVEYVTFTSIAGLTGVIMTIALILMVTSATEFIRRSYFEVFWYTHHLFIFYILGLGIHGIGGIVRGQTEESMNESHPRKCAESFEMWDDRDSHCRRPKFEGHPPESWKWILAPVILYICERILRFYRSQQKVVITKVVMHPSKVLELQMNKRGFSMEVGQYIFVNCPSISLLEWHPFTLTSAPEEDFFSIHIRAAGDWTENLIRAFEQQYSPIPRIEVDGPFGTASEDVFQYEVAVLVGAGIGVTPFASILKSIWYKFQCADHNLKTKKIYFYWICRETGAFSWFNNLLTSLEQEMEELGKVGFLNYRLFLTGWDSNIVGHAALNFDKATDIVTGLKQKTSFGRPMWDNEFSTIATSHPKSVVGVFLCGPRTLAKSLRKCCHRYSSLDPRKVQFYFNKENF
# Induced myeloid leukemia cell differentiation protein Mcl-1, sequence (Q07820 whole entry): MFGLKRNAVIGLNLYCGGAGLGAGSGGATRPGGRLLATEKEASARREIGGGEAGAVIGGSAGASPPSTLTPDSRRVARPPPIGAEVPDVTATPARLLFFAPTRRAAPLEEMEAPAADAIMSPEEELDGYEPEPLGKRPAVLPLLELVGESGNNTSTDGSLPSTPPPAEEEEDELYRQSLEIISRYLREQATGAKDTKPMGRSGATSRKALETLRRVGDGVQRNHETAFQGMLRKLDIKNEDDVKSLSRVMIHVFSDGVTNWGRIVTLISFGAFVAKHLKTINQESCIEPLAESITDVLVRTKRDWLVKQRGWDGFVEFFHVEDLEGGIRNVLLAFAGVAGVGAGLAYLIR
# Protein S100-A4, sequence (P26447 whole entry): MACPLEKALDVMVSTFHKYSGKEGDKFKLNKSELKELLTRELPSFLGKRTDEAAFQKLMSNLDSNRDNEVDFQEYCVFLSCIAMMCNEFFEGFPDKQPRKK
# Bcl-2-like protein 1, sequence (Q07817 whole entry): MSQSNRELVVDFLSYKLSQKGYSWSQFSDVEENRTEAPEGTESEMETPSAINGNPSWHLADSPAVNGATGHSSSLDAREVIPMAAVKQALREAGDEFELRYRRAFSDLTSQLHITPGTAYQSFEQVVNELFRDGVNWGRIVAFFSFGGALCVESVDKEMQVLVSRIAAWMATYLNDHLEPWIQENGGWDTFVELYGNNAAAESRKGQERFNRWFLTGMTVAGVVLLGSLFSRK
# Mucolipin-3, sequence (Q8TDD5 whole entry): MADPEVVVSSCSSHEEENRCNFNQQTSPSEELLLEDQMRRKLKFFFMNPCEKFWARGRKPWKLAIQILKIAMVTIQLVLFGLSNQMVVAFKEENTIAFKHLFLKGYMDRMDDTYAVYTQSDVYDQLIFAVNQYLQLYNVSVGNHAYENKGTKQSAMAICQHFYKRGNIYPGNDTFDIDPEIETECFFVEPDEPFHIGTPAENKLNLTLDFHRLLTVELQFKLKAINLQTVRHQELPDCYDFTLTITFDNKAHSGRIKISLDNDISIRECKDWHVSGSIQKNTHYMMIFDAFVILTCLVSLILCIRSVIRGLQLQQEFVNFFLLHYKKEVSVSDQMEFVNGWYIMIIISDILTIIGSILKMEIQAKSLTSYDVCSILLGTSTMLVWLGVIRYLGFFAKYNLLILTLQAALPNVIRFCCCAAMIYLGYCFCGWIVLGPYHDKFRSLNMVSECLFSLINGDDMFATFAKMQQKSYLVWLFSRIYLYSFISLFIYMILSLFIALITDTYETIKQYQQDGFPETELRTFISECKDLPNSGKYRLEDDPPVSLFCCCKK
# Neuropeptide Y receptor type 2, sequence (P49146 whole entry): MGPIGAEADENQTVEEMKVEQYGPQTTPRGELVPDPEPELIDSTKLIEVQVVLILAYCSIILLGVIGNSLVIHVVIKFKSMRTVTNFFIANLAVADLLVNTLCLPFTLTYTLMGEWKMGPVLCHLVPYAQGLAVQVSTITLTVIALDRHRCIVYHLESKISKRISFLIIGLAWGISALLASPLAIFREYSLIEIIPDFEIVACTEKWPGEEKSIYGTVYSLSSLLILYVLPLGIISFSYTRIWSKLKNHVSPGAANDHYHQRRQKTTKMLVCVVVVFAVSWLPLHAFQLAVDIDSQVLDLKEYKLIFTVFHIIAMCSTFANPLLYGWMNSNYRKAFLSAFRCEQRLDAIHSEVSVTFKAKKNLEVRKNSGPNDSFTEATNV
# Cytochrome P450 3A4, sequence (P08684 whole entry): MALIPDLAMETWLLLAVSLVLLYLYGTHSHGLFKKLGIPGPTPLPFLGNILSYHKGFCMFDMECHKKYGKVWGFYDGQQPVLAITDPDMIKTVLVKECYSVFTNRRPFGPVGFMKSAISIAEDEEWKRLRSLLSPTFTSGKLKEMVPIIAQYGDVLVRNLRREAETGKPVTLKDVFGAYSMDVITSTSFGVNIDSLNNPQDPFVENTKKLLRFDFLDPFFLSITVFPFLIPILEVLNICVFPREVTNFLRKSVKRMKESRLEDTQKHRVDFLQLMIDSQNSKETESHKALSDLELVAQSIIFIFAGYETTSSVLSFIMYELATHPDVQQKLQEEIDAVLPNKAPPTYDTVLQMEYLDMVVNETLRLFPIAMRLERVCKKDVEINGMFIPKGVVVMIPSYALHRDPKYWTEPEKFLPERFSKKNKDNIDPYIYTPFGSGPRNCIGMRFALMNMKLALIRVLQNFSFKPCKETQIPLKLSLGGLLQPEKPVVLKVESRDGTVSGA
# Cytochrome P450 2C19, sequence (P33261 whole entry): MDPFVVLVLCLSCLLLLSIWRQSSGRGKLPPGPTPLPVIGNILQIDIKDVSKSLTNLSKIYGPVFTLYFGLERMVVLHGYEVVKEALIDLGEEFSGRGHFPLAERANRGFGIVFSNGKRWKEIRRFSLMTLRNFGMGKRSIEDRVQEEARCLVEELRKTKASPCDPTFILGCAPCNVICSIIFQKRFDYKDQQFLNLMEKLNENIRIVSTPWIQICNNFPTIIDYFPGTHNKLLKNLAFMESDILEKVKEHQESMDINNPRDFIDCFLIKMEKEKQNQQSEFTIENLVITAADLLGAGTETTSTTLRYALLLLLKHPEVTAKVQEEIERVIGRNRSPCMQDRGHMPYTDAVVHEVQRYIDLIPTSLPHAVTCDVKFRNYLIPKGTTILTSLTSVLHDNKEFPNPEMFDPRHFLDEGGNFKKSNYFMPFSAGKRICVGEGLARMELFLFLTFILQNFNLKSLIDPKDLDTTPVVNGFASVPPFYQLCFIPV
smiles,measurement,setting,value
COc1ccc(Cl)cc1N(CC(=O)N1CCCCC1)S(C)(=O)=O,EC50,[1],2.38 µM (active)
same,EC50,[2],> 29.9 µM (not active)
O=C(NCCCN1CCCCCC1)C1CC(=O)N(CCc2ccccc2)C1 (configuration not stated),IC50,[3],10.2 µM (active)
same,AC50,[4],inconclusive
same,AC50,[5],25.1 µM (inconclusive)
CCCCn1c(NCc2ccccc2NS(=O)(=O)c2ccc(C)cc2)nc2ccccc21,EC50,[6],2.21 µM (active)
same,EC50,[7],> 60 µM (not active)
same,CC50,[8],> 40 µM (active)
O=C(Oc1cccc(F)c1)c1sc2ccccc2c1Cl,IC50,[9],> 17 µM (not active)
Cc1ccc(-c2nnc(-c3ccc(NC(=O)c4ccco4)cc3)o2)cc1,EC50,[10],28.4 µM (active)
same,EC50,[11],46.1 µM (active)
same,EC50,[12],10.4 µM (active)
O=C1NC(=O)N(c2ccccc2F)C(=O)/C1=C/c1ccc(Sc2nc3ccccc3[nH]2)o1,IC50,[13],19.5 µM (active)
same,IC50,[14],219 µM (active)
same,IC50,[15],> 100 µM (active)
same,AC50,[16],1.28 µM (active)
COc1ccccc1C1CC(c2c(O)nc3ccc(Cl)cc3c2-c2ccccc2)=NN1S(C)(=O)=O (configuration not stated),CC50,[17],16 µM (active)
same,IC50,[18],> 100 µM (active)
same,CC50,[19],25.2 µM (active)
same,AC50,[5],7.08 µM (inconclusive)
same,AC50,[20],39.8 µM (inconclusive)
Cc1ccc(-c2csc(NC(=O)C3CC=CCC3C(=O)O)c2C(=O)OC(C)C)cc1 (configuration not stated),IC50,[21],9.13 µM (active)
same,IC50,[22],39.4 µM (active)
same,EC50,[23],5.96 µM (active)
COc1cccc(NC(=O)c2ccccc2-c2nc(-c3ccc(Cl)cc3)no2)c1,IC50,[24],9 µM (active)
CN1CCN(CN2C(=O)/C(=N\NC(=O)CSc3nc4ccccc4s3)c3ccccc32)CC1,EC50,[25],12.9 µM (active)
COc1cccc(/C=N/NC(=S)Nc2cccc(C(=O)O)c2)c1O,IC50,[26],> 109 µM (not active)
same,IC50,[27],> 109 µM (not active)
same,IC50,[15],4.94 µM (active)
Fc1ccc2c(c1)/C(=N/Nc1ccccn1)CCS2,EC50,[28],7.7 µM (active)
same,EC50,[29],11.3 µM (not active)
same,EC50,[30],12.4 µM (not active)

# From ChEMBL document CHEMBL1201862, “PubChem BioAssay data set” (2004)
